We go through two molecules from patent US10285982B2, “3-(1H-pyrrolo[2,3-B]pyridin-2-yl)-1H-pyrazolo[3,4-C]pyridines and therapeutic uses thereof” (Samumed, LLC, priority 2015, dated 2019).

What is called inhibition is the relative decrease from the control value, in per cent. As a reminder, the pEC50 is the negative decadic logarithm of the EC50, by convention in mol/L.

Assay [1] has as its system Wnt activity (Sp5-Luc reporter, SW480 colon carcinoma cells). Briefly: Wnt activity screening assay, Sp5-Luc reporter gene in SW480 cells. The format is cell-based. Conditions: Homo sapiens; for pEC50: overnight incubation. In a few lines: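 Luminescence read-out (BrightGlo) from stable Sp5-Luc SW480 cells, normalized to DMSO-only wells. Cells were treated overnight at 37° C in 1% FBS medium across a 1:3, 10-point series starting at 10 μM. EC50 from variable-slope four-parameter regression; percent inhibition at 10 μM given where EC50 >10 μM.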

Assay [2] has as its system primary human mesenchymal stem cells (hMSCs). In words: Chondrogenesis induction in hMSCs (nodule count). The format is cell-based. The following applies: 144 h, hMSC chondrogenesis, 6 days; for Emax: relative to TGF-β3 (10 ng/mL) positive control, read-out: Max. Activity as % TGF-β3 activity. Here is the method:
Representative compounds were screened using primary human mesenchymal stem cells (hMSCs) to determine their ability to induce chondrogenesis (process by which cartilage is developed).
Primary human mesenchymal stem cells (hMSCs) were purchased from Lonza (Walkersville, Md.) and expanded in Mesenchymal Stem Cell Growth Media (Lonza). Cells between passage 3 and 6 were used for the experiments.
Each compound was dissolved in DMSO as a 10 mM stock and used to prepare compound source plates. Serial dilution (1:3, 6-point dose-response curves from 2700 nM to 10 nM) and compound transfer was performed using the ECHO 550 (Labcyte, Sunnyvale, Calif.) into 96-well clear bottom assay plates (Greiner Bio-One) with appropriate DMSO backfill for a final DMSO concentration of 0.03%. hMSCs were plated at 20,000 cells/well in 250 μL/well Incomplete Chondrogenic Induction Medium (Lonza; DMEM, dexamethasone, ascorbate, insulin-transferrin-selenium [ITS supplement], gentamycin-amphotericin [GA-1000], sodium pyruvate, proline and L-glutamine). TGF-β3 (10 ng/mL) was used as a positive control for differentiation while negative control wells were treated with 75 nL DMSO for normalization and calculating EC50 values. Cells were incubated at 37° C. and 5% CO2 for 6 days. To image chondrogenic nodules, the cells were fixed using 4% formaldehyde (Electron Microscopy Sciences), and stained with 2 μg/mL Rhodamine B (Sigma-Aldrich) and 20 μM Nile Red (Sigma-Aldrich) [Johnson K., et. al, A Stem Cell-Based Approach to Cartilage Repair, Science, (2012), 336(6082), 717-721]. The nodules imaged (4 images per well at 4× magnification) by excitation at 531 nm and emission at 625 nm and quantified using the CellInsight CX5 (Thermo Scientific). Number of nodules in each well was normalized to the average of 3 DMSO treated wells on the same plate using Excel (Microsoft Inc.). The normalized averages (fold change over DMSO) of 3 replicate wells for each compound concentration were calculated. Due to solubility limitations of some of the compounds, curve fitting was incomplete leading to inaccurate EC50 determinations.
Using TGF-β3 as a positive control, the concentration of representative compounds required to induce 50% levels of chondrogenesis is reported. In addition, the maximum activity of each compound and the respective dose that each compound reached maximum chondrogenesis activity is reported.

Structures are written as SMILES. pEC50: −log10 of the molar value.

With `Fc1cccc(-c2ccnc3[nH]c(-c4n[nH]c5cnc(-c6cncc(CN7CCCC7)c6)cc45)cc23)c1` [Compound 14, 3-(4-(3-Fluorophenyl)-1H-pyrrolo[2,3-b]pyridin-2-yl)-5-(5-(pyrrolidin-1-ylmethyl)pyridin-3-yl)-1H-pyrazolo[3,4-c]pyridine], in assay [1] (at 10 μM, given where EC50 >10 μM, read-out: percent inhibition at 10 μM), the inhibition at 10 µM turned out to be 22.8%. This molecule also had a pEC50 in assay [1] of under 5.00. Besides, the EC50 in assay [2] (concentration required to induce 50% of TGF-β3 level, read-out: Conc. (nM) of 50% TGF-β3 activity) turned out to be 100 nM. Also, in assay [2], the Emax is 68%.
As for `CCNCc1cncc(-c2cc3c(-c4cc5c(-c6cccnc6)ccnc5[nH]4)n[nH]c3cn2)c1` [Compound 90, N-((5-(3-(4-(Pyridin-3-yl)-1H-pyrrolo[2,3-b]pyridin-2-yl)-1H-pyrazolo[3,4-c]pyridin-5-yl)pyridin-3-yl)methyl)ethanamine], the pEC50 in assay [1] was 5.49. Moreover, in assay [2], the Emax turned out to be 49%.
